From EP2766361B1, “8-CARBAMOYL-2-(2,3-DISUBSTITUTED PYRID-6-YL)-1,2,3,4-TETRAHYDROISOQUINOLINE DERIVATIVES AS APOPTOSIS-INDUCING AGENTS FOR THE TREATMENT OF CANCER AND IMMUNE AND AUTOIMMUNE DISEASES” (priority 2011, dated 2013)
pEC50: −log10 of the molar value.

System: mouse FL5.12 cells transfected with Bcl-xL
Experiment: FL5.12 cellular assay (cell viability, CellTiter-Glo)
Format: cell-based
Conditions: IL-3-depleted, 3% FBS assay media, 24 hours, read-out: FL5.12 Bcl-xL, -IL3, EC50
Method: Cell viability was assayed using the CellTiter-Glo assay (Promega Corp., Madison, WI) according to the manufacturer instructions. Individual determinations were the result of duplicate values. […] Table 2. In Vitro Data

Row | SMILES | pEC50
1 | Cc1c(-c2ccc(N3CCc4cccc(C(=O)Nc5nc6ccccc6s5)c4C3)nc2C(=O)O)ccnc1OCC12CC3CC(CC(C3)C1)C2 [Example 27, 6-[8-(1,3-benzothiazol-2-ylcarbamoyl)-3,4-dihydroisoquinolin-2(1H)-yl]-3'-methyl-2'-(tricyclo[3.3.1.1^3,7]dec-1-ylmethoxy)-3,4'-bipyridine-2-carboxylic acid] | 6.67
2 | Cc1c(-c2ccc(N3CCc4cccc(C(=O)Nc5nc6ncccc6s5)c4C3)nc2C(=O)O)cnn1CC12CC3CC(CC(C3)C1)C2 [Example 30, 3-[5-methyl-1-(tricyclo[3.3.1.1^3,7]dec-1-ylmethyl)-1H-pyrazol-4-yl]-6-[8-([1,3]thiazolo[4,5-b]pyridin-2-ylcarbamoyl)-3,4-dihydroisoquinolin-2(1H)-yl]pyridine-2-carboxylic acid] | 7.31
3 | COC1(Cn2ncc(-c3ccc(N4CCc5cccc(C(=O)Nc6nc7ccccc7s6)c5C4)nc3C(=O)O)c2C)CCCC2(CC2)C1 (centres unmarked) [Example 79, 6-[8-(1,3-benzothiazol-2-ylcarbamoyl)-3,4-dihydroisoquinolin-2(1H)-yl]-3-{1-[(5-methoxyspiro[2.5]oct-5-yl)methyl]-5-methyl-1H-pyrazol-4-yl}pyridine-2-carboxylic acid] | 9.05
4 | Cc1c(-c2ccc(N3CCc4cccc(C(=O)Nc5nc6cccnc6s5)c4C3)nc2C(=O)O)cnn1CC12CC3CC(CC(C3)O1)C2 [Example 67, 3-[5-methyl-1-(2-oxatricyclo[3.3.1.1^3,7]dec-1-ylmethyl)-1H-pyrazol-4-yl]-6-[8-([1,3]thiazolo[5,4-b]pyridin-2-ylcarbamoyl)-3,4-dihydroisoquinolin-2(1H)-yl]pyridine-2-carboxylic acid] | 8.05
5 | COCCOC12CC3CC(CC(Cn4cc(-c5ccc(N6CCc7cccc(C(=O)Nc8nc9ccccc9s8)c7C6)nc5C(=O)O)cn4)(C3)C1)C2 [Example 8, 6-[8-(1,3-benzothiazol-2-ylcarbamoyl)-3,4-dihydroisoquinolin-2(1H)-yl]-3-(1-{[3-(2-methoxyethoxy)tricyclo[3.3.1.1^3,7]dec-1-yl]methyl}-1H-pyrazol-4-yl)pyridine-2-carboxylic acid] | 6.83
6 | COC12CC3CC(CC(Cn4c(C#N)cc(-c5ccc(N6CCc7cccc(C(=O)Nc8nc9ccccc9s8)c7C6)nc5C(=O)O)c4C)(C3)C1)C2 [Example 58, 6-[8-(1,3-benzothiazol-2-ylcarbamoyl)-3,4-dihydroisoquinolin-2(1H)-yl]-3-(5-cyano-1-{[3-methoxytricyclo[3.3.1.1^3,7]dec-1-yl]methyl}-2-methyl-1H-pyrrol-3-yl)pyridine-2-carboxylic acid] | 9.52
7 | Cc1c(C(=O)N(C)C2C3CC4CC(C3)CC2C4)cccc1-c1ccc(N2CCc3cccc(C(=O)Nc4nc5ccccc5s4)c3C2)nc1C(=O)O (centres unmarked) [Example 64] | 7.59
8 | Cc1c(-c2ccc(N3CCc4cccc(C(=O)Nc5cn6ncccc6n5)c4C3)nc2C(=O)O)cnn1CC12CC3CC(CC(C3)C1)C2 [Example 77, 6-[8-(imidazo[1,2-b]pyridazin-2-ylcarbamoyl)-3,4-dihydroisoquinolin-2(1H)-yl]-3-[5-methyl-1-(tricyclo[3.3.1.1^3,7]dec-1-ylmethyl)-1H-pyrazol-4-yl]pyridine-2-carboxylic acid] | 8.40
9 | Cc1c(-c2ccc(N3CCc4cccc(C(=O)Nc5nc6ccccc6s5)c4C3)nc2C(=O)O)nnn1CC12CC3CC(CC(C3)O1)C2 [Example 66, 6-[8-(1,3-benzothiazol-2-ylcarbamoyl)-3,4-dihydroisoquinolin-2(1H)-yl]-3-[5-methyl-1-(2-oxatricyclo[3.3.1.1^3,7]dec-1-ylmethyl)-1H-1,2,3-triazol-4-yl]pyridine-2-carboxylic acid] | 7.59
10 | Cc1c(-c2ccc(N3CCc4cccc(C(=O)Nc5nc6ccccc6s5)c4C3)nc2C(=O)O)ccnc1SC12CC3CC(CC(C3)C1)C2 [Example 74, 6-[8-(1,3-benzothiazol-2-ylcarbamoyl)-3,4-dihydroisoquinolin-2(1H)-yl]-3'-methyl-2'-(tricyclo[3.3.1.1^3,7]dec-1-ylsulfanyl)-3,4'-bipyridine-2-carboxylic acid] | 8.15
11 | Cc1c(C(=O)NC23CC4CC(CC(C4)C2)C3)cccc1-c1ccc(N2CCc3cccc(C(=O)Nc4nc5ccccc5s4)c3C2)nc1C(=O)O [Example 54, 6-[8-(1,3-benzothiazol-2-ylcarbamoyl)-3,4-dihydroisoquinolin-2(1H)-yl]-3-{2-methyl-3-[tricyclo[3.3.1.1^3,7]dec-1-ylcarbamoyl]phenyl}pyridine-2-carboxylic acid] | < 6.00
12 | Cc1nn(CC23CC4CC(CC(C4)C2)C3)c(C)c1-c1ccc(N2CCc3cccc(C(=O)Nc4nc5ccccc5s4)c3C2)nc1C(=O)O [Example 2, 6-[8-(1,3-benzothiazol-2-ylcarbamoyl)-3,4-dihydroisoquinolin-2(1H)-yl]-3-[3,5-dimethyl-1-(tricyclo[3.3.1.1^3,7]dec-1-ylmethyl)-1H-pyrazol-4-yl]pyridine-2-carboxylic acid] | > 9.00
13 | O=C(Nc1nc2ccccc2s1)c1cccc2c1CN(c1ccc(-c3cnn(CC4CCC5(CCC5)CC4)c3)c(C(=O)O)n1)CC2 [Example 4, 6-[8-(1,3-benzothiazol-2-ylcarbamoyl)-3,4-dihydroisoquinolin-2(1H)-yl]-3-[1-(spiro[3.5]non-7-ylmethyl)-1H-pyrazol-4-yl]pyridine-2-carboxylic acid] | 6.04
14 | Cc1c(-c2ccc(N3CCc4cccc(C(=O)Nc5nc6ccncc6s5)c4C3)nc2C(=O)O)cnn1CC12CC3CC(CC(C3)C1)C2 [Example 78, 3-[5-methyl-1-(tricyclo[3.3.1.1^3,7]dec-1-ylmethyl)-1H-pyrazol-4-yl]-6-[8-([1,3]thiazolo[5,4-c]pyridin-2-ylcarbamoyl)-3,4-dihydroisoquinolin-2(1H)-yl]pyridine-2-carboxylic acid] | 8.52
15 | COC12CC3(C)CC(C)(CC(Cn4ncc(-c5ccc(N6CCc7cccc(C(=O)Nc8nc9ccccc9s8)c7C6)nc5C(=O)O)c4C)(C3)C1)C2 [Example 38, 6-[8-(1,3-benzothiazol-2-ylcarbamoyl)-3,4-dihydroisoquinolin-2(1H)-yl]-3-(1-{[3-methoxy-5,7-dimethyltricyclo[3.3.1.1^3,7]dec-1-yl]methyl}-5-methyl-1H-pyrazol-4-yl)pyridine-2-carboxylic acid] | 10.00
16 | O=C(Nc1nc2ccccc2s1)c1cccc2c1CN(c1ccc(-c3ccc(=O)n(CC45CC6CC(CC(C6)C4)C5)c3)c(C(=O)O)n1)CC2 [Example 85, 6-[8-(1,3-benzothiazol-2-ylcarbamoyl)-3,4-dihydroisoquinolin-2(1H)-yl]-6'-oxo-1'-(tricyclo[3.3.1.1^3,7]dec-1-ylmethyl)-1',6'-dihydro-3,3'-bipyridine-2-carboxylic acid] | 6.95
17 | Cc1c(OCC23CC4CC(CC(C4)C2)C3)cccc1-c1ccc(N2CCc3cccc(C(=O)Nc4nc5ccccc5s4)c3C2)nc1C(=O)O [Example 21, 6-[8-(1,3-benzothiazol-2-ylcarbamoyl)-3,4-dihydroisoquinolin-2(1H)-yl]-3-{2-methyl-3-[tricyclo[3.3.1.1^3,7]dec-1-ylmethoxy]phenyl}pyridine-2-carboxylic acid] | 6.46
